Reference: patent publication US11266755B2, “Development and application of tumor diagnostic radioactive probe targeting folic acid receptor” (Kyungpook National University Industry-Academic Cooperation …, priority 2017, dated 2022)

Test system: MDA-MB-231/Luc+
Assay: PET imaging in breast cancer bone metastasis model
Type: in vivo
Conditions: PET 1 hour after injection into the tail vein, same mouse, FIG. 13B
Protocol: For the breast cancer metastasis model, MDA-MB-231/Luc+ was used, and after 10 days of direct injection of 1×10^5 cells into the left ventricle, IVIS-assisted luminescence images confirmed that bone metastasis occurred to the femoral bones. After verifying the establishment of bone metastasis model of breast cancer, further experiments were carried out (FIG. 12A).

## OC[C@H]1O[C@@H](O)[C@H]([18F])[C@@H](O)[C@@H]1O [FDG]
  PET detection of breast cancer bone metastasis: difficult to identify the tumor site clearly due to high background uptake
